Patent US20140224680A1, “KIT-OF-PARTS” (BOEHRINGER INGELHEIM VETMEDICA GMBH, priority 2013, published 2014)
Where a name gives a salt, the structure may show the parent alone.

Assay: lipophilicity profile
Format: physicochemical
Details: neutral pH values versus acidic pH values
Source text: Usually, EC/HPMC films show sustained release behavior more or less independent of pH. […] This, together with the coating applied, is expected to result in a slower release at neutral pH values, sufficient to use the respective multi-layered particles for the application of this drug for the treatment of animals like cats.

Structure (SMILES): COc1ccc(CCN2CCC[C@H](CN3CCc4cc(OC)c(OC)cc4CC3=O)C2)cc1OC [cilobradine hydrochloride]
- lipophilicity: slightly more lipophilic at neutral pH values than at acidic pH values
